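In this assay, cells in 96-well plates receive the compound at five concentrations for 48 hours. Endpoints are linearly interpolated between the surrounding concentrations. At the GI50, growth is halved. TGI: concentration producing complete growth inhibition.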

The results in this text go back to PubChem BioAssay (NCI).

Test in all cases: growth of human tumour cells (NCI), 48 h
Experiment [1] relates to LOX IMVI melanoma.
In experiment [2] the test system is TK-10 renal.
In experiment [3] the test system is HCC-2998 colon.
The test system of experiment [4] is BT-549 breast.
The subject of experiment [5] is MCF7 breast.
Experiment [6] deals with NCI-H522 lung.
For experiment [7], the system named is A498 renal.
The test system of experiment [8] is NCI-H23 lung.
Experiment [9] deals with HT29 colon.
In experiment [10] the test system is SF-539 CNS.

`C=C1C(=O)OC2CC1C(OC(=O)/C=C/c1ccccc1)C/C(C)=C/CC/C(C)=C/CCC2(C)O` (stereo unspecified): the TGI in experiment [1] was 2.61 µM; in experiment [2], 3.17 µM; in experiment [3], 3.12 µM; in experiment [4] it was 2.8 µM; in experiment [5], 1.96 µM; in [6] it was 1.63 µM. Moreover, the TGI was found to be 3.68 µM in experiment [7], 4.91 µM in experiment [8], 2.99 µM in experiment [9] and 2.83 µM in experiment [10].
On to `N#CC1=C(N)NC(=O)C(C#N)C12Nc1ccccc1S2` (stereo unspecified), for which the GI50 was 80.1 µM in [1]; 38.9 µM in [2]; 69.9 µM in experiment [4]; 32.7 µM in [5]; 19.1 µM in experiment [6]; 41.2 µM in experiment [8]. The GI50 in experiment [9] and in experiment [10] was > 100 µM throughout. Moreover, the TGI in experiment [1] is > 100 µM; in experiment [2], > 100 µM; in experiment [4], > 100 µM; in experiment [5], > 100 µM; in experiment [6] it was 60.5 µM; in [8], > 100 µM. The TGI in experiment [9] and in [10] was > 100 µM throughout.
On to `CCN(Cc1ccc(Cl)c(Cl)c1)c1ccc2nc(N)nc(N)c2c1C`, for which the GI50 in [2] was 0.0753 µM; in experiment [3], 0.039 µM; in experiment [4] it was 0.296 µM; in [5] it was 0.0189 µM; in [6], 0.0378 µM; in [7], 0.785 µM. Further, the GI50 in [8] is 0.0284 µM; in experiment [9], < 0.01 µM; in experiment [10], 0.0695 µM. The TGI turned out to be 1.91 µM in experiment [2]; 1.24 µM in experiment [3]; 7.27 µM in experiment [4]; 1.52 µM in experiment [5]; 1.82 µM in [6]; 3.63 µM in [7]. For the same compound, the TGI in experiment [8] was found to be 1.49 µM; in experiment [9], 1.27 µM; in experiment [10], 1.48 µM.
On to `COC(=O)CNC(=O)C(=O)c1c(O)c(O)c(C(C)C)c2cc(C)c(-c3c(C)cc4c(C(C)C)c(O)c(O)c(C(=O)C(=O)NCC(=O)OC)c4c3O)c(O)c12`, for which the GI50 in experiment [1] was 1.56 µM; in [3] it was 1.92 µM; in [4] it was 2.65 µM; in experiment [5], 1.64 µM; in [6], 1.32 µM; in experiment [7] it was 2.6 µM. Moreover, the GI50 in experiment [8] is 1.53 µM; in [9], 1.58 µM; in experiment [10] it was 1.77 µM. For the same compound, the TGI in [1] is 6.28 µM; in experiment [3], 7.1 µM; in [4], 11.8 µM; in [5], 6.11 µM; in [6] it was 3.43 µM; in [7], 12.2 µM. Moreover, the results for the TGI in experiment [8], in [9] and in experiment [10] were 6.37 µM, 5.36 µM and 7.84 µM, respectively.
Consider `COC(=O)NC1(NC(=O)OC)NC(=O)c2ccccc2N1`, for which the TGI in [2], in experiment [3], in [4], in experiment [5], in experiment [6] and in experiment [7] was > 100 µM throughout. The TGI in experiment [8], in experiment [9] and in experiment [10] was > 100 µM throughout.
`COc1cc(/C=C/C(=O)c2c(C)n([O-])c3ccccc3[n+]2=O)cc(OC)c1OC`: the GI50 in [1] was 5.25 µM; in experiment [2] it was 11.3 µM; in [3], 8.77 µM; in experiment [4], 3.18 µM; in experiment [5], 3.18 µM; in [6], 8.73 µM. The GI50 is 3.97 µM in experiment [7], 10.7 µM in [9] and 11.5 µM in experiment [10]. The TGI in experiment [1] is 17.4 µM; in experiment [2], 24 µM; in [3], 22.3 µM; in experiment [4], 13.5 µM; in experiment [5] it was 13.4 µM; in experiment [6], 24 µM. In addition, the results for the TGI in [7], in [9] and in [10] were 17.8 µM, 22.9 µM and 23.7 µM, respectively.
`COC(=O)c1csc(-c2csc(CCNC(=O)OC(C)(C)C)n2)n1`: the TGI in experiment [2] was > 100 µM; in experiment [3], > 100 µM; in [4], > 100 µM; in experiment [5] it was > 100 µM; in experiment [7], 99 µM; in experiment [8], > 100 µM. For the same compound, the TGI in experiment [9] and in experiment [10] was > 100 µM each time.
In the case of `O=C1OC(C(O)CO)C(C(O)CO)OC1=O` (stereo unspecified), the TGI in experiment [2], in experiment [3], in experiment [4], in experiment [5], in experiment [7] and in experiment [8] was > 10 µM throughout. Besides, the TGI in experiment [9] and in [10] was > 10 µM throughout.
Consider `COc1ccc(-c2nc(NC(=O)CS(=O)(=O)c3ccc(F)cc3)sc2C)cc1`, for which the GI50 in experiment [1] was 19.2 µM; in experiment [2], 28.9 µM; in experiment [3], 26 µM; in experiment [4], 15.8 µM; in experiment [5], 16.3 µM; in [7], 11.6 µM. For the same compound, the GI50 in [8] is 27.9 µM; in experiment [9], 11 µM; in experiment [10] it was 16.9 µM. Besides, the TGI in [1] is 42.6 µM; in [2], 81.2 µM; in [3], 94.7 µM; in experiment [4] it was 40.3 µM; in experiment [5] it was > 100 µM; in experiment [7], 32.8 µM. The TGI was > 100 µM in experiment [8], 39.4 µM in [9] and 37.2 µM in experiment [10].
Regarding `CC(C)(C)OC(=O)NCCCCCCCCCn1c2c(c3ccccc3c1=O)C(=O)c1ccccc1-2`, the GI50 in experiment [1] was 76.3 µM; in [2], 17.4 µM; in [3], > 100 µM; in experiment [4], 35.1 µM; in [5], 90 µM; in experiment [6] it was 44.9 µM. For the same compound, the values for the GI50 in experiment [8], in experiment [9] and in experiment [10] were 37 µM, > 100 µM and 18 µM, respectively. In addition, the TGI in experiment [1] was > 100 µM; in experiment [2], 45.8 µM; in [3], > 100 µM; in [4], > 100 µM; in experiment [5], > 100 µM; in experiment [6], > 100 µM. The TGI in [8] is > 100 µM; in [9], > 100 µM; in [10] it was 52.8 µM.
